According to patent US10071963B2, “Polymorphic form of N-[2-(6-fluoro-1H-indol-3-yl)ethyl]-3-(2,2,3,3-tetrafluoropropoxy)benzylamine hydrochloride for the treatment of Alzheimer's disease” (H. Lundbeck A/S, priority 2014, dated 2018):

Key:
Type in all cases: physicochemical
[1] = Slurry experiments of polymorphic form I in solvents, solid evaluated by XRPD; details: no solvate formed, hydrochloride
Method: 6 mL of a solvent or solvent mixture is added into a glass vial together with polymorphic form I of N-[2-(6-fluoro-1H-indol-3-yl)ethyl]-3-(2,2,3,3-tetrafluoropropoxy)benzylamine hydrochloride. The added amount of compound is determined by the expected solubility in the relevant solvent or solvent system. If a clear solution is obtained anti-solvent and/or additional polymorphic form I of N-[2-(6-fluoro-1H-indol-3-yl)ethyl]-3-(2,2,3,3-tetrafluoropropoxy)benzylamine hydrochlorideis added until it is a suspension at the relevant temperature. The suspension is slurred for a prolonged period of time. The result of the slurry experiment is evaluated by filtering off the solid material and measuring XRPD on the isolated solid.
6 mL of a toluene/acetonitrile (4:1) solvent mixture was added into a glass vial and 100 mg polymorphic form I of N-[2-(6-fluoro-1H-indol-3-yl)ethyl]-3-(2,2,3,3-tetrafluoropropoxy)benzylamine hydrochloride was added. The resulting suspension was heated to 50° C. A clear solution was obtained and another 50 mg was added. The suspension was stirred for one month at 50° C. Polymorphic form III of N-[2-(6-fluoro-1H-indol-3-yl)ethyl]-3-(2,2,3,3-tetrafluoropropoxy)benzylamine hydrochloride was obtained as evaluated by XRPD.
6 mL of an acetone/heptane (1:4) solvent mixture was added into a glass vial and 100 mg polymorphic form I of N-[2-(6-fluoro-1H-indol-3-yl)ethyl]-3-(2,2,3,3-tetrafluoropropoxy)benzylamine hydrochloride was added. The resulting suspension was heated to 50° C. The suspension was stirred for one week at 50° C. Polymorphic form III of N-[2-(6-fluoro-1H-indol-3-yl)ethyl]-3-(2,2,3,3-tetrafluoropropoxy)benzylamine hydrochloride was obtained as evaluated by XRPD.
6 mL of a methanol/toluene (1:9) solvent mixture was added into a glass vial and 100 mg polymorphic form I of N-[2-(6-fluoro-1H-indol-3-yl)ethyl]-3-(2,2,3,3-tetrafluoropropoxy)benzylamine hydrochloride was added. After stirring another 1 mL of the anti-solvent (toluene) was added +50 mg polymorphic form I of N-[2-(6-fluoro-1H-indol-3-yl)ethyl]-3-(2,2,3,3-tetrafluoropropoxy)benzylamine hydrochloride. […] To the 4 mL solutions another 1 mL of toluene was added and additional 50 mg polymorphic form I of N-[2-(6-fluoro-1H-indol-3-yl)ethyl]-3-(2,2,3,3-tetrafluoropropoxy)benzylamine hydrochloride. The resulting suspension was heated to 50° C. A clear solution was obtained and substance was added until a suspension was obtained. The suspension was stirred for one week at 50° C. Polymorphic form III of N-[2-(6-fluoro-1H-indol-3-yl)ethyl]-3-(2,2,3,3-tetrafluoropropoxy)benzylamine hydrochloride was obtained as evaluated by XRPD.
6 mL of isopropyl acetate was added into a glass vial and 50 mg polymorphic form I of N-[2-(6-fluoro-1H-indol-3-yl)ethyl]-3-(2,2,3,3-tetrafluoropropoxy)benzylamine hydrochloride was added. The resulting suspension was heated to 50° C. A clear solution was obtained and another 50 mg polymorphic form I of N-[2-(6-fluoro-1H-indol-3-yl)ethyl]-3-(2,2,3,3-tetrafluoropropoxy)benzylamine hydrochloride was added. Substance was added until a suspension was obtained at 50° C. The suspension was stirred for one week at 50° C. Polymorphic form III of N-[2-(6-fluoro-1H-indol-3-yl)ethyl]-3-(2,2,3,3-tetrafluoropropoxy)benzylamine hydrochloride was obtained as evaluated by XRPD.
6 mL of ethyl acetate was added into a glass vial and 150 mg polymorphic form I of N-[2-(6-fluoro-1H-indol-3-yl)ethyl]-3-(2,2,3,3-tetrafluoropropoxy)benzylamine hydrochloride was added. The resulting suspension was heated to 50° C. on a thermal stirrer plate. A clear solution was obtained and 50 mg polymorphic form I of N-[2-(6-fluoro-1H-indol-3-yl)ethyl]-3-(2,2,3,3-tetrafluoropropoxy)benzylamine hydrochloride was added. Polymorphic form I of N-[2-(6-fluoro-1H-indol-3-yl)ethyl]-3-(2,2,3,3-tetrafluoropropoxy)benzylamine hydrochloride was added until a suspension was obtained. The suspension was stirred for one month at 50° C. […]

[2] = Thermodynamic solubility in organic solvents; details: room temperature (about 23° C.); for Solubility: HPLC at 217 nm, hydrochloride
Method: Thermodynamic solubility of polymorphic form I and III of N-[2-(6-fluoro-1H-indol-3-yl)ethyl]-3-(2,2,3,3-tetrafluoropropoxy)benzylamine hydrochloride was measured by shaking an excess amount of the two polymorphic forms in the organic solvent in a sealed container at room temperature (about 23° C.). After equilibrium was attained, a sample was withdrawn, the solid filtered or centrifuged off and the clear filtrate/supernatant was assayed by HPLC at 217 nm. The precipitate was evaluated by XRPD to determine the polymorphic form.

[3] = Relative stability of polymorphic form I, II and III (competitive slurry in saturated solution); details: II and III in equal amounts, hydrochloride
Method: A saturated solution was prepared by heating 1.6 mL isopropyl acetate and 0.4 mL heptane to 70° C. and adding 50 mg of polymorphic form I of N-[2-(6-fluoro-1H-indol-3-yl)ethyl]-3-(2,2,3,3-tetrafluoropropoxy)benzylamine hydrochloride.
The supernatant was divided into two ampoules and kept at 60° C. and 70° C.
5 mg of polymorphic form I, II and III of N-[2-(6-fluoro-1H-indol-3-yl)ethyl]-3-(2,2,3,3-tetrafluoropropoxy)benzylamine hydrochloride was added to the 60° C. solution and left stirring at 60° C. for one and four days, respectively.
2.5 mg of polymorphic form I, II and III of N-[2-(6-fluoro-1H-indol-3-yl)ethyl]-3-(2,2,3,3-tetrafluoropropoxy)benzylamine hydrochloride was added to the 70° C. solution and left without stirring at 70° C. for three days.

[4] = isopropyl acetate, 60° C., one and four days
[5] = 70° C., without stirring, three days

Cl.Fc1ccc2c(CCNCc3cccc(OCC(F)(F)C(F)F)c3)c[nH]c2c1 [polymorphic form I, N-[2-(6-fluoro-1H-indol-3-yl)ethyl]-3-(2,2,3,3-tetrafluoropropoxy)benzylamine hydrochloride]
Transformation on slurrying / relative solubility and thermodynamic stability ([1]; slurried at 5° C.): transformed into polymorphic form III
Transformation on slurrying / relative solubility and thermodynamic stability ([1]; slurried at 25° C.): transformed into polymorphic form III
Transformation on slurrying / relative solubility and thermodynamic stability ([1]; slurried at 50° C.): transformed into polymorphic form III
Solubility ([2]; 2-butanol): 10.5 mg base/mL
Solubility ([2]; Isopropanol): 25.2 mg base/mL
Solubility ([2]; Isopropyl acetate): 3.4 mg base/mL
Relative thermodynamic stability of the polymorphic forms [3, 4]: less stable than polymorphic form III

Cl.Fc1ccc2c(CCNCc3cccc(OCC(F)(F)C(F)F)c3)c[nH]c2c1 [polymorphic form II, N-[2-(6-fluoro-1H-indol-3-yl)ethyl]-3-(2,2,3,3-tetrafluoropropoxy)benzylamine hydrochloride]
Relative thermodynamic stability of the polymorphic forms [3, 5]: thermodynamically stable
Relative thermodynamic stability of the polymorphic forms [3, 4]: thermodynamically stable

Cl.Fc1ccc2c(CCNCc3cccc(OCC(F)(F)C(F)F)c3)c[nH]c2c1 [polymorphic form III, N-[2-(6-fluoro-1H-indol-3-yl)ethyl]-3-(2,2,3,3-tetrafluoropropoxy)benzylamine hydrochloride]
Transformation on slurrying / relative solubility and thermodynamic stability ([1]; slurried at 5° C.): less soluble and therefore thermodynamically stable
Transformation on slurrying / relative solubility and thermodynamic stability ([1]; slurried at 25° C.): less soluble and therefore thermodynamically stable
Transformation on slurrying / relative solubility and thermodynamic stability ([1]; slurried at 50° C.): less soluble and therefore thermodynamically stable
Solubility ([2]; 2-butanol): 9.3 mg base/mL
Solubility ([2]; Isopropanol): 24.5 mg base/mL
Solubility ([2]; Isopropyl acetate): 3.0 mg base/mL
Relative solubility and thermodynamic stability ([2]; organic solvents, compared with polymorphic form I): slightly less soluble and therefore thermodynamically stable
Relative thermodynamic stability of the polymorphic forms [3, 5]: vanished
Relative thermodynamic stability of the polymorphic forms [3, 4]: transforming into polymorphic form II
